Laboratory results reported in patent US11180483B2, “Substituted reverse pyrimidine Bmi-1 inhibitors” (PTC Therapeutics, Inc., priority 2012, dated 2021).

Assays:
Bmi-1 = test: Sandwich ELISA Assay (Bmi-1 ELISA) in HT-1080 cells; assay type: cell-based
Summary of the method: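 HT-1080 cells exposed to compound in 0.5% final DMSO for 40-48 h at 37 °C, then lysed. Bmi-1 was quantified by sandwich ELISA: mouse monoclonal capture, rabbit anti-Bmi-1 detection, HRP anti-rabbit and TMB. Read at OD450 (OD570 reference) against a recombinant GST-Bmi-1 standard curve (0-8000 pg/mL).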

[1] = system: CSC population in a BXD GBM model; test: In Vitro Cancer Stem Cell Assay, BXD GBM model (number of neurospheres); assay type: cell-based; conditions: 13 days, stated concentrations
Description: In Vitro Cancer Stem Cell Assay
The effect on inhibition of Bmi-1 function and reduction in the level of Bmi-1 protein by a compound of Formula (I) or a form thereof was tested in the in vitro pediatric Baylor Xenograft Derived (BXD) brain tumor model and in cells from primary patient cultures (PPC).
Cells were grown under conditions to measure either general cell growth (such as in fetal bovine serum (FBS) containing media in conventional tissue culture plates) or in conditions specifically for cancer stem cell (CSC) growth (low serum, nonadherent plates) to assess the effect of Bmi-1 inhibition and reduction in the level of Bmi-1 protein by a compound of Formula (I) on these populations. The cells were treated with a predetermined dose range of Compound 109 at fixed time points over a time period of from 24 hours to 13 days. The effect of inhibition on cell growth viability was quantitated using conventional 2D growth and neurosphere growth using a cell-counting kit (CCK) (supplied by Dojindo Molecular Technologies, Inc.).

U87-MG tumor cells = test: In Vivo Survival Assay, orthotopic model of glioblastoma; parameters: species or system nu/nu mice; conditions: daily dosing begun 10 days after intracranial implantation, 40 day time period, versus vehicle and temozolomide (p<0.0001)
Description: A glioblastoma animal model was developed in which U87-MG tumor cells were injected intracranially into nu/nu mice and a tumor was allowed to become established over a 10 day period. The mice were dosed daily with vehicle, Compound 109 or temozolomide (a standard-of-care agent), as indicated. The comparative results for survival for each treatment group (n=10) from administration of vehicle, Compound 109 and temozolomide are shown in FIG. 4.
Cells were implanted intracranially into nude mice and dosing was begun 10 days later with either vehicle, Compound 109 or temozolomide.

Row | Structure (SMILES) | EC50 (Bmi-1) [nM] | melting point [°C] | CSC population (as measured by number of neurospheres), FIG. 1 [1] | CSC population (as measured by number of neurospheres), FIG. 2 [1] | survival of tumor bearing mice, FIG. 4 (U87-MG tumor cells)
1 | Cc1nc2ccc(F)cc2n1-c1nc(N)c(F)c(Nc2ccc(C(F)(F)F)cc2)n1 [Cpd 109, 5-fluoro-2-(6-fluoro-2-methyl-1H-benzimidazol-1-yl)-N-[4-(trifluoromethyl)phenyl]pyrimidine-4,6-diamine] | 10 to 100 | – | dose dependently reduced | universally reduced | extended survival
2 | Cc1nc2ccccc2n1-c1nc(N)cc(Nc2ccc3c(c2)OC(F)(F)O3)n1 [Cpd 206, N-(2,2-difluoro-1,3-benzodioxol-5-yl)-2-(2-methyl-1H-benzimidazol-1-yl)pyrimidine-4,6-diamine] | 10 to 100 | 141 to 142 | – | – | –
3 | COc1ccc(Nc2cc(N)nc(-n3c(C)nc4ccccc43)n2)cn1 [Cpd 208, N-(6-methoxypyridin-3-yl)-2-(2-methyl-1H-benzimidazol-1-yl)pyrimidine-4,6-diamine] | 1 to 10 | 118 to 119 | – | – | –
4 | COc1ccc(Nc2nc(-c3c(C)nc4ccc(F)cn34)nc(N)c2F)cc1 [Cpd 252, 5-fluoro-2-(6-fluoro-2-methylimidazo[1,2-a]pyridin-3-yl)-N-(4-methoxyphenyl)pyrimidine-4,6-diamine] | 10 to 100 | 204 to 206 | – | – | –
5 | Cc1ccc(Nc2nc(-c3c(C)nc4ccc(F)cn34)nc(N)c2F)cc1 [Cpd 253, 5-fluoro-2-(6-fluoro-2-methylimidazo[1,2-a]pyridin-3-yl)-N-(4-methylphenyl)pyrimidine-4,6-diamine] | 1 to 10 | 210 to 212 | – | – | –
6 | Cc1nc2ccc(F)cc2n1-c1nc(N)cc(Nc2ccc(N(C)C)cc2)n1 [Cpd 266, N-[4-(dimethylamino)phenyl]-2-(6-fluoro-2-methyl-1H-benzimidazol-1-yl)pyrimidine-4,6-diamine] | 10 to 100 | 122 to 125 | – | – | –
7 | Cc1nc2ccc(F)cc2n1-c1nc(N)cc(Nc2ccc(Cl)c(F)c2)n1 [Cpd 267, N-(4-chloro-3-fluorophenyl)-2-(6-fluoro-2-methyl-1H-benzimidazol-1-yl)pyrimidine-4,6-diamine] | 100 to 3000 | 225 to 227 | – | – | –
8 | Cc1cccc(Nc2cc(N)nc(-n3c(C)nc4ccc(F)cc43)n2)c1 [Cpd 268, 2-(6-fluoro-2-methyl-1H-benzimidazol-1-yl)-N-(3-methylphenyl)pyrimidine-4,6-diamine] | 100 to 3000 | 203 to 205 | – | – | –

Further lines, with some results ahead:

Row | EC50 (Bmi-1) [nM] | melting point [°C] | Structure (SMILES) | CSC population (as measured by number of neurospheres), FIG. 1 [1] | CSC population (as measured by number of neurospheres), FIG. 2 [1] | survival of tumor bearing mice, FIG. 4 (U87-MG tumor cells)
9 | 1 to 10 | 233 to 234 | COc1ccc(Nc2cc(N)nc(-n3c(C)nc4ccccc43)n2)cc1F [Cpd 207, N-(3-fluoro-4-methoxyphenyl)-2-(2-methyl-1H-benzimidazol-1-yl)pyrimidine-4,6-diamine] | – | – | –
10 | 100 to 3000 | 226 to 229 | Cc1nc2ccc(F)cn2c1-c1nc(N)c(F)c(Nc2ccc(Cl)cc2)n1 [Cpd 251, N-(4-chlorophenyl)-5-fluoro-2-(6-fluoro-2-methylimidazo[1,2-a]pyridin-3-yl)pyrimidine-4,6-diamine] | – | – | –
11 | 10 to 100 | 183 to 185 | Cc1nc2ccc(F)cc2n1-c1nc(N)cc(Nc2ccc(Cl)cc2)n1 [Cpd 263, N-(4-chlorophenyl)-2-(6-fluoro-2-methyl-1H-benzimidazol-1-yl)pyrimidine-4,6-diamine] | – | – | –
12 | 100 to 3000 | 212 to 215 | Cc1nc2ccc(F)cc2n1-c1nc(N)cc(Nc2ccc3c(c2)OC(F)(F)O3)n1 [Cpd 269, N-(2,2-difluoro-1,3-benzodioxol-5-yl)-2-(6-fluoro-2-methyl-1H-benzimidazol-1-yl)pyrimidine-4,6-diamine] | – | – | –
